The values below come from patent US20140294978A1, “CATIONIC LIPID” (Kyowa Hakko Kirin Co., Ltd., priority 2013, published 2014).

Series [1] in a line: Average particle diameter of the lipid nanoparticles in each preparation (Zetasizer Nano ZS). The series is classed as physicochemical. The source says:
Each sample was weighed so that the ratio of each of Compounds I-1 to I-5/1,2-dimyristoyl-sn-glycero-3-phosphoethanolamine-N-(methoxy(polyethylene glycol)-2000) sodium salt (PEG-DMPE Na, N-(carbonylmethoxypolyethylene glycol 2000)-1,2-dimyristoyl-sn-glycero-3-phosphoethanolamine sodium salt, manufactured by NOF Corporation)/disteazoylphosphatidyl choline (DSPC, 1,2-distearoyl-sn-glycero-3-phosphocholine, manufactured by NOF Corporation)/choiestercl (manufactured by NOF Corporation)=8.947/1.078/5.707/13.698 mmol/L, and dissolved in 90 vol % ethanol, whereby a solution containing the constituent components of a lipid membrane was prepared. Separately, apo-b siRNA in distilled water (24 mg/mL) was diluted with a Tris-EDTA buffer solution (200 mM Tris-HCl, 20 mM EDTA, manufactured by Invitrogen Co., Ltd.) and a 20 mM citric acid buffer solution (pH 5.0), whereby a 1.5 mg/mL apo-b siRNA aqueous solution (2 mM Tris-EDTA buffer solution, 20 mM citric acid buffer solution, pH 5.0) was prepared.
The obtained lipid solution was heated to 37° C., and a 500 μL portion was transferred to a container for preparing a preparation. The obtained apo-b siRNA aqueous solution (500 μL) was then added thereto while stirring. Then, a 20 mM citric acid buffer solution (containing 300 mM NaCl, pH 6.0, 1000 μL) was added to the obtained lipid nucleic acid mixed suspension (1000 μL) while stirring, and further, DPBS (manufactured by Invitrogen Co., Ltd., 3310 μL) was added dropwise thereto, whereby a crude preparation was obtained. The obtained crude preparation was concentrated by using Amicon Ultra (manufactured by Millipore Co., Ltd.), and further, the solvent was replaced with DPBS, and the resulting mixture was filtered through a 0.2-μm filter (manufactured by Toyo Roshi Kaisha, Ltd.) in a laminar flow cabinet. Further, the siRNA concentration in the obtained preparation was measured, and the preparation was diluted with DPBS so that the siRNA concentration was 0.3 mg/mL, whereby preparations (compositions containing any of Compounds I-1 to I-5, and the nucleic acid) were obtained.
The average particle diameter of the lipid nanoparticles in each preparation was measured using a particle diameter measurement device (Zetasizer Nano ZS, manufactured by Malvern).
Preparations were obtained in the same manner as in Example 9 except that Compounds I-1 to I-5 were changed to DLin-KC2-DMA synthesized by a modified method of the method described in WO2010/042877 and the compounds obtained in Reference Examples 5 to 7 (Compounds VII-1 to VII-3).
The average particle diameter of the lipid nanoparticles in each preparation was measured using a particle diameter measurement device.
Each sample was weighed so that the ratio of Compound I-6/PEG-DMPE Na (manufactured by NOF Corporation)/DSPC (manufactured by NOF Corporation)/cholesterol (manufactured by NOF Corporation)=3.532/0.270/1.156/2.401 mmol/L, and dissolved in 100 volt ethanol, whereby a solution containing the constituent components of a lipid membrane was prepared.
The obtained lipid solution was heated to 37° C., and an 800 μL portion was transferred to a container for preparing a preparation. The obtained f7 siRNA aqueous solution (800 μL) was then added thereto while stirring. Then, a 20 mM citric acid buffer solution (containing 300 mM NaCl, pH 6.0, 1600 μL) was added to the obtained lipid nucleic acid mixed suspension (1600 μL) while stirring, and further, DPBS (manufactured by Invitrogen Co., Ltd., […]) was added dropwise thereto, whereby a crude preparation was obtained. The obtained crude preparation was concentrated by using Amicon Ultra (manufactured by Millipore Co., Ltd.), and further, the solvent was replaced with DPBS, and the resulting mixture was filtered through a 0.45-μm filter (manufactured by Toyo Roshi Kaisha, Ltd.) in a laminar flow cabinet. […]

The subject of series [2] is Factor VII. Nature of the series: In vivo drug efficacy: Factor VII protein level in plasma of mice after intravenous f7 siRNA preparations. The conditions noted are these: Balb/c mice, 0.3 or 0.1 mg/kg in terms of siRNA, 48 hours after administration, f7 siRNA preparation, FIG. 4. On the procedure: Each of the preparations obtained in Examples 10 and 11 (the compositions containing Compound I-6, I-1, I-7, or I-8, and the nucleic acid) was tested for evaluating the in vivo drug efficacy according to the following method. Incidentally, each preparation was used after it was diluted in accordance with the test.
After mice (Balb/c, obtained from CLEA Japan, Inc.) were housed and acclimated, each preparation was intravenously administered to mice at a dose of 0.3 or 0.1 mg/kg in terms of siRNA concentration. At 48 hours after the administration, blood was collected, and the collected blood was centrifuged at 8000 rpm for 8 minutes at 4° C. using a high speed refrigerated microcentrifuge (TOMY MX305, manufactured by Tomy Seiko Co., Ltd.). The Factor VII protein level in the thus obtained plasma sample was determined as follows. A BIOPHEN VII Kit (Cat. No. A221304, manufactured by ANIARA Company) was used, and according to the method described in the protocol attached to the kit, the absorbance was measured in a standard solution and in the plasma sample using ARVO (405 nm). On the basis of the obtained absorbance, a calibration curve was prepared, and the Factor VII protein level in the plasma was calculated. Incidentally, the number of mice in each group was set to 3.

The test system of series [3] is apo-b gene mRNA in human liver cancer-derived cell line HepG2. Nature of the series: Expression ratio of apo-b mRNA after introduction of preparations into HepG2 cells. It counts as cell-based. The conditions noted are these: preparation with apo-b siRNA, nucleic acid 1 to 30 nM, 24 hours, FIG. 1. The source says:
Each of the preparations obtained in Example 9 (the compositions containing any of Compounds I-1, and I-3 to I-5, and the nucleic acid) and the preparations obtained in Comparative Example 1 (the compositions containing any of DLin-KC2-DMA and Compounds VII-1 to VII-3, and the nucleic acid) was introduced into cells of a human liver cancer-derived cell line HepG2 (HB-8065) by the following method.
Each preparation diluted with Opti-MEM (GIBCO Co., Ltd., 31985) so that the final concentration of the nucleic acid was 1 to 30 nM was dispensed in a 96-well culture plate at 20 μL/well. […]
By using the obtained cDNA as a template and also using a universal probe library (Roche Applied Science, Inc., 04683633001) as the probe and ABI7900HT Fast (manufactured by ABI, Inc.), a PCR reaction was performed according to the method described in the protocol attached thereto, so that the apo-b gene and D-glyceraldehyde-3-phosphate dehydrogenase (hereinafter, represented by “gapdh”) gene, which is a constitutively expressed gene, were subjected to the PCR reaction. Then, the amount of the amplified mRNA was measured for each gene, and aquasi-quantitative value of the apo-b mRNA was calculated using the amount of the amplified gapdh mRNA as the internal control. […]

The mark [4] stands for this setting: preparations of Examples 10 and 11: cationic lipid/PEG-DMPE Na/DSPC/cholesterol with f7 siRNA.
The mark [5] stands for this setting: preparations of Example 9: cationic lipid/PEG-DMPE Na/DSPC/cholesterol with apo-b siRNA.
Where [6] appears, read: preparations of Comparative Example 1, made as in Example 9, with apo-b siRNA.

With `CCCCC/C=C\C/C=C\CCCCCCCCN(CCCCCCCC/C=C\C/C=C\CCCCC)C(=O)OCCCN1CCCC1` [Compound I-8, 3-(Pyrrolidin-1-yl)propyl di((9Z,12Z)-octadeca-9,2-dienyl)carbamate], in series [1] (setting [4]), the “Particle diameter of Preparation obtained” value (“Particle diameter” below) came out at 121.6 nm. Besides, in series [2], the “Factor VII protein level in the plasma (expression of the Factor VII gene)” value (“Factor VII protein level in the plasma” below) is reported as “strongly suppressed”.

Take `CCCCC/C=C\C/C=C\CCCCCCCCN(CCCCCCCC/C=C\C/C=C\CCCCC)C(=O)OCCN(C)C` [Compound I-5, 2-(Dimethylamino)ethyl di((9Z,12Z)-octadeca-9,2-dienyl)carbamate]: the “Particle diameter” value in series [1] (setting [5]) came to 137.0 nm.

`CCCCC/C=C\C/C=C\CCCCCCCCC1(CCCCCCCC/C=C\C/C=C\CCCCC)OCC(CCN(C)C)O1` (stereo not drawn) [DLin-KC2-DMA, 2,2-dilinoleyl-4-(2-dimethylaminoethyl)-[1,3]-dioxolane, reference compound]: in series [1] (setting [6]), the “Particle diameter” value came to 159.8 nm.

On to `CCCCC/C=C\C/C=C\CCCCCCCCN(CCCCCCCC/C=C\C/C=C\CCCCC)C(=O)OCCCN1CCCCC1` [Compound I-7, 3-(Piperidin-1-yl)propyl di((9Z,12Z)-octadeca-9,12-dienyl)carbamate], for which the “Particle diameter” value in series [1] (setting [4]) was determined as 131.8 nm. For the same compound, in series [2], the “Factor VII protein level in the plasma” value is “strongly suppressed”.

On to `CCCCC/C=C\C/C=C\CCCCCCCCN(CCCCCCCC/C=C\C/C=C\CCCCC)C(=O)CCCCN(C)C` [Compound VII-2, 5-(Dimethylamino)-N,N-di((9Z,12Z)-octadeca-9,12-dienyl)pentanamide, reference compound], for which the “Particle diameter” value in series [1] (setting [6]) was 160.1 nm. Further, in series [3], the “expression of the apo-b gene mRNA” value was “did not suppress the expression of the apo-b gene mRNA”.

On to `CCCCCCCC/C=C\CCCCCCCCN(CCCCCCCC/C=C\CCCCCCCC)C(=O)OCCCN(C)C` [Compound I-2, 3-(Dimethylamino)propyl di((Z)-octadec-9-enyl)carbamate], for which the “Particle diameter” value in series [1] (setting [5]) is listed as 135.8 nm.

As for `CCCCCC/C=C\CCCCCCCCN(CCCCCCCC/C=C\CCCCCC)C(=O)OCCCN(C)C` [Compound I-3, 3-(Dimethylamino)propyl di((Z)-hexadec-9-enyl)carbamate], the “Particle diameter” value in series [1] (setting [5]) is 150.0 nm.

Regarding `CCCCC/C=C\C/C=C\CCCCCCCCN(CCCCCCCC/C=C\C/C=C\CCCCC)C(=O)OCCC1CCCN1C` (stereo not drawn) [Compound I-6, 2-(1-Methylpyrrolidin-2-yl)ethyl di((9Z,12Z)-octadeca-9,12-dienyl)carbamate], the “Particle diameter” value in series [1] (setting [4]) was 121.1 nm. Moreover, the “Factor VII protein level in the plasma” value in series [2] is given as “strongly suppressed”.

For `CCCCC/C=C\C/C=C\CCCCCCCCN(CCCCCCCC/C=C\C/C=C\CCCCC)C(=O)CCCCN` [Compound VII-1, 5-Amino-N,N-di((9Z,12Z)-octadeca-9,12-dienyl)pentanamide, reference compound], the “Particle diameter” value in series [1] (setting [6]) is 176.6 nm.

On to `CCCCC/C=C\C/C=C\CCCCCCCCN(CCCCCCCC/C=C\C/C=C\CCCCC)C(=O)OCCCN(C)C` [Compound I-1, 3-(Dimethylamino)propyl di((9Z,12Z)-octadeca-9,12-dienyl)carbamate], for which the “Particle diameter” value in series [1] (setting [5]) is reported as 151.8 nm; in series [1] (setting [4]), 118.9 nm. In series [2], the “Factor VII protein level in the plasma” value is given as “strongly suppressed”.

For `CCCCC/C=C\C/C=C\CCCCCCCCCCN(CCCCCCCCCC/C=C\C/C=C\CCCCC)C(=O)OCCCN(C)C` [Compound I-4, 3-(Dimethylamino)propyl di((11Z,14Z)-icosa-11,14-dienyl)carbamate], the “Particle diameter” value in series [1] (setting [5]) amounted to 159.0 nm.

Regarding `CCCCC/C=C\C/C=C\CCCCCCCCN(CCCCCCCC/C=C\C/C=C\CCCCC)C(=O)OCCCN` [Compound VII-3, 3-Aminopropyl di((9Z,12Z)-octadeca-9,12-dienyl)carbamate, reference compound], the “Particle diameter” value in series [1] (setting [6]) was determined as 177.7 nm.
